Usually IC50 stands for the point on the concentration scale where inhibition reaches its midpoint.

Where two headings read alike, the source gives them in different places. Where only a bound is given, the exact number is not on record here.

This note sets out measurements from publication PMC7613620, “Reaction hijacking of tyrosine tRNA synthetase as a whole-of-life-cycle antimalarial strategy” (Science (New York, N.Y.), 2022).

For one experiment, the target named is PfYRS (Plasmodium falciparum, UniProt Q8IAR7). As to the kind of experiment: ATP consumption by PfYRS (Kinase-Glo). In kind it is biochemical. As for the experimental part: 804 An intron was detected in the PftRNATyr sequence, that was not indicated in PlasmoDB. A T7 RNA
PfYRS, sequence (Q8IAR7 entry or part of it): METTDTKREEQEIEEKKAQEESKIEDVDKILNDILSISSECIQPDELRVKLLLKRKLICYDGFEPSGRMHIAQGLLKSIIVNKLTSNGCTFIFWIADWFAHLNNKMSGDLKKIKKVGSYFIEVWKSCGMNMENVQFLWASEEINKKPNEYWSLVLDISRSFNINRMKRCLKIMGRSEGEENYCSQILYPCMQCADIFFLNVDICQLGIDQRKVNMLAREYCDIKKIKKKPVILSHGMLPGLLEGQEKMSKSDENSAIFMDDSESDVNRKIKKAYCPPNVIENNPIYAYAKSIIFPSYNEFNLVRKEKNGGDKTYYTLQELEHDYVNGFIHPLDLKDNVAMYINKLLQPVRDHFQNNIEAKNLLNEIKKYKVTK
805 polymerase promoter sequence was added to the 5’ end of the DNA sequence of P. falciparum and H.
806 sapiens tRNATyr. This DNA template and its complementary strand were custom-synthesized by Sigma-
807 Aldrich. Two oligonucleotides were annealed at 95°C for 5 min and the double-stranded DNA template
808 was used for in vitro transcription. The transcription reaction was incubated at 37°C overnight. The reaction
809 mixture consists of template DNA, T7 RNA polymerase and NTP mix as per manufacturer's instructions
810 (HiScribe™ T7 Quick High Yield RNA Synthesis Kit, NEB). On the following day, the reaction mixture
811 was treated with DNase I at 37°C for 15 min. tRNA was purified using RNA clean-up spin columns
812 (Monarch® RNA Cleanup Kit, NEB) to remove contaminants from the transcription reaction. […]
820 was sealed and analysed using StepOnePlus Real-Time PCR system (Applied Biosystems). […]
822 as the first derivative curve of the raw fluorescence values. […]
824 values were calculated from DTm using the equation: ln(KD/[L]) = -131.5 x (∆Tm/Tm,apo) - 1.9, where [L] […]
828 Consumption of ATP by YRS was measured using a luciferase-based assay as per the manufacturer’s […]
836 The aminoacylation activity of YRS was measured by the incorporation of tritiated L-tyrosine into tRNATyr […]

Experiment [1] has as its target SUMO-activating enzyme (SAE) (Homo sapiens, UniProt Q9UBT2). Put plainly: biochemical. Particulars: read-out: SAE IC50 HTRF. An excerpt:
592 E1-E2 Transthiolation Assays
593 An Homogeneous Time-Resolved Fluorescence (HTRF) enzyme assay was employed to evaluate
594 compound activity against ATG7 as previously described (11). In this assay, a Flag-tagged ATG8 homolog
595 (GABA type A receptor-associated protein; GABARAP) is activated by ATG7 and then transthiolated to a
596 GST-tagged E2 (ATG3). The product of the enzyme reaction, Flag-GABARAP-ATG3-GST, is quantified
597 by measuring FRET between Europium-Cryptate labelled monoclonal anti-Flag M2 (CisBio International,
598 Cat# 61FG2KLB) and PHYCOLINK goat anti-GST allophycocyanin (Prozyme, PJ252p1). The activation
599 and transthiolation of ubiquitin by Ubiquitin Activating Enzyme, activation and transthiolation of NEDD8
600 by NEDD8 Activating Enzyme. […]
606 Compounds were incubated with mature stage V gametocytes ([…], kind gift from Professor Chris Janse
607 at Leiden University Medical Center (LUMC), the Netherlands) for 48 hours in 384 well plates before
608 gamete formation was triggered by a drop in temperature and addition of xanthurenic acid. […]
611 Multiple data sets using different gametocyte cultures were collected on each of two separate days.
613 Activity against exoerythrocytic stages
614 Primary human hepatocytes (H1500.H15B+ Lot No. HC10-10 Cryopreserved human hepatocytes) […]
For orientation: TR-FRET usually uses a lanthanide donor and a delayed reading to cut background.

SUMO-activating enzyme (SAE), sequence (Q9UBT2 whole entry): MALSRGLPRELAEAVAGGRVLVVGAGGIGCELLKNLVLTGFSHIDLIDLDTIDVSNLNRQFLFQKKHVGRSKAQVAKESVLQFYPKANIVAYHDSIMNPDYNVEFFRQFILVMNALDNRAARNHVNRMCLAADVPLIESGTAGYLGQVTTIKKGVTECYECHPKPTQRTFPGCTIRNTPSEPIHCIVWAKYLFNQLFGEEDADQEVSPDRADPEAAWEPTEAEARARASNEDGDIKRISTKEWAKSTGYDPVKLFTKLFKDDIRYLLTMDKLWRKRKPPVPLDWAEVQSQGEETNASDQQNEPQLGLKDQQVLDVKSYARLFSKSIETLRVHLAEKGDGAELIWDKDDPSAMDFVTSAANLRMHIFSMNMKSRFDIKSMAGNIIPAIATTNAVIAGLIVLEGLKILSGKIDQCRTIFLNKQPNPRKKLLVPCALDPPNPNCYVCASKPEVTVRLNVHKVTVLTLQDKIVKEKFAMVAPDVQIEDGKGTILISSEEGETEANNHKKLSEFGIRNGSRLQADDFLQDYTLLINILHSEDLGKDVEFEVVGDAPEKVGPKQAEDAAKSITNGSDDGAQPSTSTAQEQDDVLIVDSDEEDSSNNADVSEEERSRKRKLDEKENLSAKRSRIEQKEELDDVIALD
SUMO-activating enzyme (SAE), sequence (Q9UBE0 whole entry partner): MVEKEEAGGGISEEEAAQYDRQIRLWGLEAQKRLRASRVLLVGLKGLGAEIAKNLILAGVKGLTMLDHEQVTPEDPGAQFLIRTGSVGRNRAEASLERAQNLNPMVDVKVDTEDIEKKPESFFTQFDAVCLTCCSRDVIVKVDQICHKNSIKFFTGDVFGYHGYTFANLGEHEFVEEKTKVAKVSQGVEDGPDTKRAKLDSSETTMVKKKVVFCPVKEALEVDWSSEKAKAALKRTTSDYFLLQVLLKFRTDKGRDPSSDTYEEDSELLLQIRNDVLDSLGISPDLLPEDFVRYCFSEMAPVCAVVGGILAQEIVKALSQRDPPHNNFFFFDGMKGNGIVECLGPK

Turning to `Nc1ncnc2c1c(OC(F)F)nn2[C@@H]1O[C@H](COS(N)(=O)=O)[C@@H](O)[C@H]1O` [ML901], the IC50 on PfYRS (in the absence of cognate tRNATyr, read-out: IC50 (-PftRNATyr), ATP consumption by PfYRS) is above 500 µM; at PfYRS (in the presence of cognate tRNATyr, read-out: IC50 (+PftRNATyr), ATP consumption by PfYRS) it was 25 µM; in experiment [1] it was above 1 µM.
